Key:
[1] = molecular target: veratridine-sensitive sodium channel; assay: binding to the veratridine-sensitive sodium channel; conditions: read-out: IC50, affinity for the veratridine binding site
Experimental: (§1) The agents of the invention display binding to the veratridine-sensitive sodium channel with IC50 S of from about 0.1 to about 100 μM. For the binding procedure see for example J. B. Brown, Journal of Neuroscience 6, 2064-2070 (1986). They block veratridine-induced glutamate release in rat hippocampal slice preparations at concentrations of about 0.1-1 μM.

[2] = tested on: veratridine-induced glutamate release in rat hippocampal slice preparations; assay: veratridine-induced glutamate release in rat hippocampal slice preparations; format: cell-based; conditions: for IC50: Rattus norvegicus, read-out: IC50, block of veratridine-induced glutamate release
Experimental: as §1
The experiment is performed according to a modification of M. J. Leach et al. in Epilepsia 27, 490-497 (1986) and Stroke 24, 1063-1067 (1993), using exogenous glutamate.

[3] = tested on: maximal electroshock-induced convulsions; assay: protection against maximal electroshock-induced convulsions in mice; format: in vivo
Experimental: The agents of the invention provide long-lasting protection against maximal electroshock-induced convulsions in mice at doses of about 1 to 100 mg/kg p.o. and about 0.32 to 32 mg/kg i.p. [cf. E. A. Swinyard, J. Am. Pharm. Assoc. Scient. Ed. 38, 201 (1949) and J. Pharmacol. Exptl. Therap. 106, 319 (1952)].
(§2) For all these indications the preferred compound is (R)-1,2,3,4-tetrahydro-8-methoxy-N,N-dimethyl-5-[4-(trifluoromethyl)phenyl]-2-naphthaleneamine, which is the compound of example 21. It has for example been determined that in the above mentioned electroshock model, this compound provides protection against maximal electroshock-induced convulsions with a threshold dose of 10 mg/kg p.o. for periods up to 8 hours post-administration.

[4] = tested on: ischemia-induced neuronal damage (infarct size); assay: middle cerebral artery (MCA) occlusion model in rats; format: in vivo
Experimental: Furthermore, the agents of the invention reduce ischemia-induced neuronal damage and ensuing symptoms in the middle cerebral artery (MCA) occlusion model in rats at a dosage of 1-30 mg/kg i.p, i.v. and p.o. [cf. A. Tamura et al., J. Cereb. Blood Flow Metabol. 1, 53-60 (1981)), A. Sauter, M. Rudin, Stroke 17, 1228-1234 (1986)].
as §2

[5] = 10 mg/kg i.p., immediately after occlusion

COc1ccc(-c2ccc(C(F)(F)F)cc2)c2c1C[C@H](N(C)C)CC2 [Example 21, (R)-1,2,3,4-tetrahydro-8-methoxy-N,N-dimethyl-5-[4-(trifluoromethyl)phenyl]-2-naphthaleneamine]
IC50 [1]: 125 nM
IC50 [2]: 500 nM
potency relative to Lifarizine in the veratridine-induced glutamate release test ([2]; compared with Lifarizine): about equipotent to Lifarizine
minimal effective dose ([3]; Mus musculus, po, read-out: threshold dose for protection against maximal electroshock-induced convulsions): 10 mg/kg
period of protection against maximal electroshock-induced convulsions post-administration ([3]; p.o., threshold dose 10 mg/kg): up to 8 hours
infarct size reduction ([4]; 3.2 mg/kg i.p. immediately after occlusion): 19%
infarct size reduction [4, 5]: 43%
infarct size reduction ([4]; 32 mg/kg i.p. immediately after occlusion): 53%

Nc1nnc(-c2cccc(Cl)c2Cl)c(N)n1 [Lamotrigine, reference compound]
IC50 [2]: 20000 nM

Cc1ccc(-c2nc(C)c(CN3CCN(C(c4ccccc4)c4ccccc4)CC3)[nH]2)cc1 [Lifarizine, reference compound]
infarct size reduction [4, 5]: 25%

Nc1nc2ccc(OC(F)(F)F)cc2s1 [Riluzole, reference compound]
IC50 [2]: 5000 nM

— US6169116A, “Amino-tetralines, pharmaceutical compositions containing them and their pharmaceutical uses” (Novartis AG, priority 1995, dated 2001)
